Assays:
Assay type in all cases: in vivo
[1] = test system: ragweed (common ragweed, Ambrosia elatior); assay: Test C greenhouse herbicide test, pre- and postemergence
Summary of the method: (§1)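 Pre- and postemergence greenhouse screen; values are visual control ratings, 0 meaning no effect and 100 complete kill, assigned relative to untreated plants after 13 to 15 d.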

[2] = test system: wheat (winter wheat, Triticum aestivum); assay: as above
Summary of the method: as §1

[3] = test system: johnsongrass (Sorghum halepense); assay: as above
Summary of the method: as §1

[4] = test system: morningglory (Ipomoea coccinea); assay: as above
Summary of the method: as §1

[5] = test system: foxtail, giant (giant foxtail, Setaria faberii); assay: as above
Summary of the method: as §1

[6] = test system: pigweed (Amaranthus retroflexus); assay: as above
Summary of the method: as §1

corn (Zea mays) = assay: as above
Summary of the method: as §1

[7] = test system: galium (catchweed bedstraw, Galium aparine); assay: as above
Summary of the method: as §1

[8] = test system: barnyardgrass (Echinochloa crus-galli); assay: as above
Summary of the method: as §1

[9] = test system: waterhemp (common waterhemp, Amaranthus rudis); assay: as above
Summary of the method: as §1

[10] = test system: crabgrass, large (large crabgrass, Digitaria sanguinalis); assay: as above
Summary of the method: as §1

[11] = test system: oilseed rape (Brassica napus); assay: as above
Summary of the method: as §1

soybean (Glycine max) = assay: as above
Summary of the method: as §1

[12] = test system: blackgrass (Alopecurus myosuroides); assay: as above
Summary of the method: as §1

[13] = test system: velvetleaf (Abutilon theophrasti); assay: as above
Summary of the method: as §1

[14] = test system: oat, wild (wild oat, Avena fatua); assay: Test C greenhouse herbicide test, postemergence
Summary of the method: (§2)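 Greenhouse postemergence spray on plants 2–18 cm tall; response judged visually after 13–15 d relative to untreated controls using a 0 (none) to 100 (full control) scale.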

kochia (Kochia scoparia) = assay: Test C greenhouse herbicide test, postemergence
Summary of the method: as §2

[15] = Postemergence, 31 g ai/ha, scale 0 to 100 (0 no effect, 100 complete control)
[16] = Postemergence, 62 g ai/ha, 0 to 100 scale (0 no effect, 100 complete control)
[17] = Postemergence, 250 g ai/ha, scale 0 to 100, 0 no effect, 100 complete control, 13 to 15 d
[18] = postemergence, 125 g ai/ha, scale 0 to 100, 0 no effect, 100 complete control
[19] = Postemergence, 250 g ai/ha, scale 0 to 100, 0 is no effect, 100 is complete control

## COC(=O)Oc1c(C)nn(C)c(=O)c1-c1c([N+](=O)[O-])ccc2ccccc12 [Compound 162]
[1]; [15]
  Plant response rating, Ragweed: 70
[1]; [16]
  Ragweed plant response rating: 85
[1]; [17]
  Plant response rating, Ragweed: 90
[1]; [18]
  Ragweed plant response rating: 75
[2]; [15]
  Plant response rating, Wheat: 0
[2]; [16]
  Wheat plant response rating: 10
[2]; [17]
  Plant response rating, Wheat: 10
[2]; [18]
  Wheat plant response rating: 5
[3]; [15]
  Plant response rating, Johnsongrass: 5
[3]; [16]
  Johnsongrass plant response rating: 5
[3]; [17]
  Plant response rating, Johnsongrass: 10
[3]; [18]
  Johnsongrass plant response rating: 5
[4]; [15]
  Plant response rating, Morningglory: 60
[4]; [16]
  Morningglory plant response rating: 85
[4]; [17]
  Plant response rating, Morningglory: 90
[4]; [18]
  Morningglory plant response rating: 85
[5]; [15]
  Plant response rating, Foxtail, Giant: 5
[5]; [16]
  Foxtail, Giant plant response rating: 15
[5]; [17]
  Plant response rating, Foxtail, Giant: 40
[5]; [18]
  Foxtail, Giant plant response rating: 15
[6]; [15]
  Plant response rating, Pigweed: 75
[6]; [16]
  Pigweed plant response rating: 80
[6]; [17]
  Plant response rating, Pigweed: 90
[6]; [18]
  Pigweed plant response rating: 85
Corn (Zea mays); [15]
  Plant response rating, Corn: 0
Corn (Zea mays); [16]
  Corn plant response rating: 0
Corn (Zea mays); [17]
  Plant response rating, Corn: 0
Corn (Zea mays); [18]
  Corn plant response rating: 0
[7]; [15]
  Plant response rating, Galium: 90
[7]; [16]
  Galium plant response rating: 90
[7]; [17]
  Plant response rating, Galium: 98
[7]; [18]
  Galium plant response rating: 95
[8]; [15]
  Plant response rating, Barnyardgrass: 10
[8]; [16]
  Barnyardgrass plant response rating: 20
[8]; [17]
  Plant response rating, Barnyardgrass: 25
[8]; [18]
  Barnyardgrass plant response rating: 25
[9]; [15]
  Plant response rating, Waterhemp: 45
[9]; [16]
  Waterhemp plant response rating: 65
[9]; [17]
  Plant response rating, Waterhemp: 65
[9]; [18]
  Waterhemp plant response rating: 70
[10]; [15]
  Plant response rating, Crabgrass, Large: 0
[10]; [16]
  Crabgrass, Large plant response rating: 5
[10]; [17]
  Plant response rating, Crabgrass, Large: 10
[10]; [18]
  Crabgrass, Large plant response rating: 10
[11]; [15]
  Plant response rating, Oilseed Rape: 0
[11]; [16]
  Oilseed Rape plant response rating: 0
[11]; [17]
  Plant response rating, Oilseed Rape: 0
[11]; [18]
  Oilseed Rape plant response rating: 0
Soybean (Glycine max); [15]
  Plant response rating, Soybean: 0
Soybean (Glycine max); [16]
  Soybean plant response rating: 0
Soybean (Glycine max); [17]
  Plant response rating, Soybean: 0
Soybean (Glycine max); [18]
  Soybean plant response rating: 0
[12]; [15]
  Plant response rating, Blackgrass: 10
[12]; [16]
  Blackgrass plant response rating: 15
[12]; [17]
  Plant response rating, Blackgrass: 40
[12]; [18]
  Blackgrass plant response rating: 30
[13]; [15]
  Plant response rating, Velvetleaf: 5
[13]; [16]
  Velvetleaf plant response rating: 15
[13]; [17]
  Plant response rating, Velvetleaf: 70
[13]; [18]
  Velvetleaf plant response rating: 30
[14]; [15]
  Plant response rating, Oat, Wild: 50
[14]; [16]
  Oat, Wild plant response rating: 60
[14]; [17]
  Plant response rating, Oat, Wild: 70
[14]; [18]
  Oat, Wild plant response rating: 70
Kochia (Kochia scoparia); [15]
  Plant response rating, Kochia: 70
Kochia (Kochia scoparia); [16]
  Kochia plant response rating: 80
Kochia (Kochia scoparia); [17]
  Plant response rating, Kochia: 90
Kochia (Kochia scoparia); [18]
  Kochia plant response rating: 90

## CC(=O)Oc1c(C)nn(C)c(=O)c1-c1c([N+](=O)[O-])ccc2ccccc12 [Compound 164]
[1]; [15]
  Plant response rating, Ragweed: 70
[1]; [16]
  Ragweed plant response rating: 80
[1]; [19]
  Plant response rating, Ragweed: 90
[1]; [18]
  Ragweed plant response rating: 85
[2]; [15]
  Plant response rating, Wheat: 5
[2]; [16]
  Wheat plant response rating: 5
[2]; [19]
  Plant response rating, Wheat: 20
[2]; [18]
  Wheat plant response rating: 10
[3]; [15]
  Plant response rating, Johnsongrass: 5
[3]; [16]
  Johnsongrass plant response rating: 5
[3]; [19]
  Plant response rating, Johnsongrass: 10
[3]; [18]
  Johnsongrass plant response rating: 5
[4]; [15]
  Plant response rating, Morningglory: 80
[4]; [16]
  Morningglory plant response rating: 85
[4]; [19]
  Plant response rating, Morningglory: 90
[4]; [18]
  Morningglory plant response rating: 90
[5]; [15]
  Plant response rating, Foxtail, Giant: 5
[5]; [16]
  Foxtail, Giant plant response rating: 10
[5]; [19]
  Plant response rating, Foxtail, Giant: 30
[5]; [18]
  Foxtail, Giant plant response rating: 15
[6]; [15]
  Plant response rating, Pigweed: 70
[6]; [16]
  Pigweed plant response rating: 80
[6]; [19]
  Plant response rating, Pigweed: 85
[6]; [18]
  Pigweed plant response rating: 85
Corn (Zea mays); [15]
  Plant response rating, Corn: 0
Corn (Zea mays); [16]
  Corn plant response rating: 0
Corn (Zea mays); [19]
  Plant response rating, Corn: 5
Corn (Zea mays); [18]
  Corn plant response rating: 5
[7]; [15]
  Plant response rating, Galium: 90
[7]; [16]
  Galium plant response rating: 95
[7]; [19]
  Plant response rating, Galium: 100
[7]; [18]
  Galium plant response rating: 100
[8]; [15]
  Plant response rating, Barnyardgrass: 10
[8]; [16]
  Barnyardgrass plant response rating: 25
[8]; [19]
  Plant response rating, Barnyardgrass: 35
[8]; [18]
  Barnyardgrass plant response rating: 30
[9]; [15]
  Plant response rating, Waterhemp: 60
[9]; [16]
  Waterhemp plant response rating: 70
[9]; [19]
  Plant response rating, Waterhemp: 75
[9]; [18]
  Waterhemp plant response rating: 70
[10]; [15]
  Plant response rating, Crabgrass, Large: 0
[10]; [16]
  Crabgrass, Large plant response rating: 5
[10]; [19]
  Plant response rating, Crabgrass, Large: 10
[10]; [18]
  Crabgrass, Large plant response rating: 10
[11]; [15]
  Plant response rating, Oilseed Rape: 0
[11]; [16]
  Oilseed Rape plant response rating: 0
[11]; [19]
  Plant response rating, Oilseed Rape: 0
[11]; [18]
  Oilseed Rape plant response rating: 0
Soybean (Glycine max); [15]
  Plant response rating, Soybean: 0
Soybean (Glycine max); [16]
  Soybean plant response rating: 0
Soybean (Glycine max); [19]
  Plant response rating, Soybean: 5
Soybean (Glycine max); [18]
  Soybean plant response rating: 10
[12]; [15]
  Plant response rating, Blackgrass: 5
[12]; [16]
  Blackgrass plant response rating: 15
[12]; [19]
  Plant response rating, Blackgrass: 45
[12]; [18]
  Blackgrass plant response rating: 40
[13]; [15]
  Plant response rating, Velvetleaf: 25
[13]; [16]
  Velvetleaf plant response rating: 60
[13]; [19]
  Plant response rating, Velvetleaf: 70
[13]; [18]
  Velvetleaf plant response rating: 25
[14]; [15]
  Plant response rating, Oat, Wild: 35
[14]; [16]
  Oat, Wild plant response rating: 45
[14]; [19]
  Plant response rating, Oat, Wild: 80
[14]; [18]
  Oat, Wild plant response rating: 70
Kochia (Kochia scoparia); [15]
  Plant response rating, Kochia: 60
Kochia (Kochia scoparia); [16]
  Kochia plant response rating: 85
Kochia (Kochia scoparia); [19]
  Plant response rating, Kochia: 95
Kochia (Kochia scoparia); [18]
  Kochia plant response rating: 90

— patent US10597388B2, “Pyridazinone herbicides” (FMC CORPORATION, priority 2014, dated 2020)
